# Results taken from paper PMC9783868, “Indoline-5-Sulfonamides: A Role of the Core in Inhibition of Cancer-Related Carbonic Anhydrases, Antiproliferative Activity and Circumventing of Multidrug Resistance” (Pharmaceuticals, 2022).
# Like-named read-outs stand apart in the source and are kept apart here.
# Experiments:
# hCA I = target: T1, hCA I (Homo sapiens, UniProt P00915); assay: CA inhibition, stopped-flow CO2 hydration assay; assay type: biochemical; details: stopped-flow technique; mean from three assays
# T1 construct: made in house
# Method: (§1) The CO2 hydration activity of the four hCA isoforms was monitored using an Applied Photophysics stopped-flow instrument. Phenol red (at a concentration of 0.2 mM) was used as an indicator, working at the absorbance maximum of 557 nm, with 10 mM HEPES (pH 7.4) as a buffer, and 20 mM NaClO4 (for maintaining constant the ionic strength), following the initial rates of the CA-catalyzed CO2 hydration reaction for a period of 10–100 s. To determine the kinetic parameters by Lineweaver-Burk plots and the inhibition constants, a concentration of CO2 between 1.7 to 17 mM was used. At least six measurements of the original 5–10% reaction were used to assess the initial velocity for each inhibitor. The uncatalyzed rates were determined and detracted from the total observed rates. Stock inhibitor solutions (10–100 mM) were prepared in distilled-deionized water, and dilutions up to 0.1 nM were done with the buffer test. […] The inhibition constants were obtained by non-linear least-squares methods using PRISM 6 and the Cheng-Prusoff equation, as reported earlier, and represent the mean from at least three different determinations.
# hCA II = target: T2, hCA II (Homo sapiens, UniProt P00918); assay: CA inhibition, stopped-flow CO2 hydration assay; assay type: biochemical; details: stopped-flow technique; mean from three assays
# T2 construct: made in house
# Method: as §1
# hCA IX = target: T3, hCA IX (Homo sapiens, UniProt Q16790); assay: CA inhibition, stopped-flow CO2 hydration assay; assay type: biochemical; details: stopped-flow technique; mean from three assays
# T3 construct: made in house
# Method: as §1
# hCA XII = target: T4, hCA XII (Homo sapiens, UniProt O43570); assay: CA inhibition, stopped-flow CO2 hydration assay; assay type: biochemical; details: stopped-flow technique; mean from three assays
# T4 construct: made in house
# Method: as §1
# MCF7 cells = assay: Antiproliferative activity, MTT test; assay type: cell-based; details: Homo sapiens, MTT assay after 72 h exposure
# Method: A series of synthesized indoline-5-sulfonamides was tested on the MCF7 cancer cell line under normoxia and hypoxia using the MTT test.
# The MDR subline K562/4 [77] (kind gift of Dr. Alexander Shtil, Blokhin N.N. National Medical Research Center of Oncology) was obtained by stepwise selection of K562 cells for survival under continuous exposure to Dox. This subline expresses the MDR1 gene and functional P-gp and is characterized by a high resistance index for Dox. […] Cells in the logarithmic phase of growth were used in the experiments. The growth inhibitory activity of compounds was assessed by the MTT test based on the metabolism of the MTT reagent (3-[4,5-dimethylthiazol-2-yl]-2,5-diphenyltetrazolium bromide) (Applichem) in living cells, with modifications as described previously in [49]. Compounds at different concentrations in 100 μL of the appropriate medium were added, and the cells were grown for 72 h. The hypoxia (1% O2) conditions were simulated in Binder multigas incubator, as described in [49]. After incubation with compounds, the medium was removed, the MTT reagent that was dissolved in the medium was added to the final concentration of 0.2 mg/mL to each well, and the incubation was performed for 2 h. Then the cell supernatants were removed, and purple formazan crystals were dissolved in 100% DMSO (350 μL per well). Culture plates were gently shaken, and the absorbance was measured at 571 nm with a reference wavelength of 630 nm on a MultiScan reader (ThermoFisher, Waltham, MA, USA). The viability of the cells was expressed as a percentage of the control. Dose-response curves were analyzed by regression analysis using sigmoid curves (Log(concentration) vs. normalized absorbance).
# All results were reported as means ± SD. One-way analysis of variance was used for the analysis of data. Differences were defined as significant at p < 0.05. GraphPad Prism7 (GraphPad Software, San Diego, CA, USA) was used for the determination of the half-maximal inhibitory concentration (IC50) values.
# K562 cells = assay: Antiproliferative activity, MTT test; assay type: cell-based, human
# Excerpt: Next, we examined the activity of the whole series of indoline-5-sulfonamides against leukemia cell line K562.
# (§2) The MCF7 human breast, A431 human skin cancer cells and K562 (ATCC CCL-243) chronic myelogenous leukemia cells were obtained from the ATCC collection. The MDR subline K562/4 [77] (kind gift of Dr. Alexander Shtil, Blokhin N.N. National Medical Research Center of Oncology) was obtained by stepwise selection of K562 cells for survival under continuous exposure to Dox. This subline expresses the MDR1 gene and functional P-gp and is characterized by a high resistance index for Dox. […] The growth inhibitory activity of compounds was assessed by the MTT test based on the metabolism of the MTT reagent (3-[4,5-dimethylthiazol-2-yl]-2,5-diphenyltetrazolium bromide) (Applichem) in living cells, with modifications as described previously in [49]. […] Culture plates were gently shaken, and the absorbance was measured at 571 nm with a reference wavelength of 630 nm on a MultiScan reader (ThermoFisher, Waltham, MA, USA). The viability of the cells was expressed as a percentage of the control. Dose-response curves were analyzed by regression analysis using sigmoid curves (Log(concentration) vs. normalized absorbance).
# K562/4 cells = assay: Reversal of chemoresistance to Dox, MTT test; assay type: cell-based, human
# Excerpt: Earlier, Kopecka and colleagues have shown that CA XII can interact with P-gp and influence its activity. Subsequently, silencing or inhibition of CA XII by chemical agents may restore the sensitivity to Dox of resistant K562 and other tumor cells. Given the potent inhibition of 4f against CA XII and the activity of 4e against K562, we examined their ability to reverse the chemoresistance of K562/4 with P-gp to Dox.
# The MCF7 human breast, A431 human skin cancer cells and K562 (ATCC CCL-243) chronic myelogenous leukemia cells were obtained from the ATCC collection. The MDR subline K562/4 [77] (kind gift of Dr. Alexander Shtil, Blokhin N.N. National Medical Research Center of Oncology) was obtained by stepwise selection of K562 cells for survival under continuous exposure to Dox. This subline expresses the MDR1 gene and functional P-gp and is characterized by a high resistance index for Dox. The MCF7 and A431 cells were cultured in standard 4.5 g/L glucose DMEM medium (Gibco) supplemented with 10% FCS (HyClone), 2 mM L-glutamine, 50 U/mL penicillin, 50 µg/mL streptomycin (PanEco), 100 µg/mL sodium pyruvate (Santa Cruz) at 37 °C, 5% CO2 and 80–85% humidity in NuAire incubator. Suspension myelogenous leukemia cells (K562, K562/4) were propagated in RPMI-1640 (PanEco) with 5% FCS (HyClone), 2 mM L-glutamine, 100 U/mL penicillin, and 100 µg/mL streptomycin at 37 °C, 5% CO2, and 80–85% humidity in Binder incubator. Cells in the logarithmic phase of growth were used in the experiments. The growth inhibitory activity of compounds was assessed by the MTT test based on the metabolism of the MTT reagent (3-[4,5-dimethylthiazol-2-yl]-2,5-diphenyltetrazolium bromide) (Applichem) in living cells, with modifications as described previously in [49]. Compounds at different concentrations in 100 μL of the appropriate medium were added, and the cells were grown for 72 h. The hypoxia (1% O2) conditions were simulated in Binder multigas incubator, as described in [49]. After incubation with compounds, the medium was removed, the MTT reagent that was dissolved in the medium was added to the final concentration of 0.2 mg/mL to each well, and the incubation was performed for 2 h. Then the cell supernatants were removed, and purple formazan crystals were dissolved in 100% DMSO (350 μL per well). Culture plates were gently shaken, and the absorbance was measured at 571 nm with a reference wavelength of 630 nm on a MultiScan reader (ThermoFisher, Waltham, MA, USA). The viability of the cells was expressed as a percentage of the control. Dose-response curves were analyzed by regression analysis using sigmoid curves (Log(concentration) vs. normalized absorbance).
# Figure 6 Susceptibility of resistant K562/4 line to combinations of Dox (25 µM) with indoline-5-sulfonamides 4e and 4f. […]
# A431 skin cancer cells = assay: Antiproliferative activity, MTT test; assay type: cell-based, human; details: 72 h, normoxia
# Excerpt: To evaluate the influence of CA inhibition on the antiproliferative activity, we selected five compounds 4b, f, m, n and 10 with different inhibition profiles against CA IX for in-depth testing on cancer cells with increased CA IX expression. The database www.proteinatlas.org (accessed on 13 October 2022) contains data on gene expression in various cell lines. According to the data obtained from this database, A431 cells express CA IX at a very high level, which distinguishes them from human cell lines belonging to other tissues [https://www.proteinatlas.org/ENSG00000107159-CA9/cell+line (accessed on 13 October 2022)]. A431 cells are skin cancer cells, and their growth has already been intensely analyzed in hypoxia. […] Moreover, Ren and colleagues described that hypoxia modulates cellular pathways in A431 cells, which are associated with radioresistance and enhanced migration. Given the observations described above, we were expecting to reveal the high antiproliferative activity of the selected compounds against skin cancer cells. […] In hypoxia, the activity of tested compounds was increased, but the 50% inhibition of growth was never achieved.
# as §2, with “[77]” for “[77] (kind gift of Dr. Alexander Shtil, Blokhin N.N. National Medical Research Center of Oncology) was obtained by stepwise selection of K562 cells for survival under continuous exposure to Dox. This subline expresses the MDR1 gene and functional P-gp and is characterized by a high resistance index for Dox.”
# [1] = hypoxia (1% O2), read-out: IC50 against MCF7 Cells, Hypoxia
# [2] = normoxia, read-out: IC50 against MCF7 Cells, Normoxia
# T4 sequence (O43570 25-354): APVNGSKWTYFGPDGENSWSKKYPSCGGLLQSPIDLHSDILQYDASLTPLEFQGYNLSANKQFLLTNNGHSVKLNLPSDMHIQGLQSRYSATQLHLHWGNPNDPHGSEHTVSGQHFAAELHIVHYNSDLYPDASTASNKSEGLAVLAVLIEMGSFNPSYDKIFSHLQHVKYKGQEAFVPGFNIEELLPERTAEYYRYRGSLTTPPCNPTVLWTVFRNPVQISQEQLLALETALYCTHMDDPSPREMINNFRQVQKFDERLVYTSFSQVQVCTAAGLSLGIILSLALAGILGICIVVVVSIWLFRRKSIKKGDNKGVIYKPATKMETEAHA
# T1 sequence (P00915 whole entry): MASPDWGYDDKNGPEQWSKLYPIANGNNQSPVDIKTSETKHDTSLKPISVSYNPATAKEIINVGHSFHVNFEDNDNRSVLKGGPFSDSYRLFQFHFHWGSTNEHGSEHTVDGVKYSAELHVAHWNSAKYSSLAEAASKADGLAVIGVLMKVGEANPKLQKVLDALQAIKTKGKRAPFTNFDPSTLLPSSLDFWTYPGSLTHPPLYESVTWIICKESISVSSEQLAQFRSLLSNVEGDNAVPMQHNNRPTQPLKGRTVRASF
Ki (hCA I) [nM],Ki (hCA II) [nM],Ki (hCA IX) [nM],Ki (hCA XII) [nM],IC50 (MCF7 cells; [1]) [nM],IC50 (MCF7 cells; [2]) [nM],melting point [°C],SMILES,concentration inhibiting growth of K562 cells (K562 cells) [µM],effect of combination with Dox on viable K562/4 cells (K562/4 cells; combination with Dox (25 µM)),cytotoxic activity against MDR subline K562/4 as monoagent (K562/4 cells; monoagent),"inhibition of growth of A431 cells, normoxia (A431 skin cancer cells)"
52.2,3.4,1300,127,20200 ± 2000,29900 ± 2700,187 to 189,"NS(=O)(=O)c1ccc2c(c1)CCN2C(=O)c1c(F)c(F)c(F)c(F)c1F [Compound 4e, 1-(Perfluorobenzoyl)indoline-5-sulfonamide]",10,decline of viable K562/4 cells,low cytotoxic activity,
65.9,5.6,> 10000,> 10000,> 50000,> 50000,> 250,"NS(=O)(=O)c1ccc2c(c1)CCN2C(=O)c1cccc(F)c1 [Compound 4b, 1-(3-Fluorobenzoyl)indoline-5-sulfonamide]",,,,least active
49,3,> 10000,103,36700 ± 3200,29600 ± 2200,248 to 250,"COc1cc(C(=O)N2CCc3cc(S(N)(=O)=O)ccc32)cc(OC)c1OC [Compound 4m, 1-(3,4,5-Trimethoxybenzoyl)indoline-5-sulfonamide]",,,,least active
